Where two headings read alike, the source gives them in different places.
Key:
HCV replicon cells = test: HCV replicon FRET / luciferase assay; format: cell-based; settings: Hepatitis C virus
Description: FRET Assay Preparation. To perform the HCV FRET screening assay, 96-well cell culture plates were used. The FRET peptide (Anaspec, Inc.) (Taliani et al., Anal. Biochem. 1996, 240, 60-67) contains a fluorescence donor, EDANS, near one end of the peptide and an acceptor, DABCYL, near the other end. The fluorescence of the peptide is quenched by […] resonance energy transfer (RET) between the donor and the acceptor, but as the NS3 protease cleaves the peptide the products are released from RET quenching and the fluorescence of the donor becomes apparent. The assay reagent was made as follows: 5× cell Luciferase cell culture lysis reagent from Promega (#E153A) diluted to 1× with dH2O, NaCl added to 150 mM final, the FRET peptide diluted to 20 μM final from a 2 mM stock.
To prepare plates, HCV replicon cells, with or without a Renilla luciferase reporter gene, were trypsinized and placed into each well of a 96-well plate with titrated test compounds added in columns 3 through 12; columns 1 and 2 contained a control compound (HCV protease inhibitor), and the bottom row contained cells without compound. The plates were then placed in a CO2 incubator at 37° C.
Assays. Subsequent to addition of the test compounds described above (FRET Assay Preparation), at various times the plate was removed and Alamar blue solution (Trek Diagnostics, #00-100) was added per well as a measure of cellular toxicity. After reading in a Cytoflour 4000 instrument (PE Biosystems), plates were rinsed with PBS and then used for FRET assay by the addition of 30 ul of the FRET peptide assay reagent described above (FRET Assay Preparation) per well. The plate was then placed into the Cytoflour 4000 instrument which had been set to 340 excite/490 emission, automatic mode for 20 cycles and the plate read in a kinetic mode. Typically, the signal to noise using an endpoint analysis after the reads was at least three-fold. Alternatively, after Alamar blue reading, plates were rinsed with PBS, 50 ul of DMEM (high glucose) without phenol red was added and plates were then used for luciferase assay using the Promega Dual-Glo Luciferase Assay System.
Compound analysis was determined by quantification of the relative HCV replicon inhibition and the relative cytotoxicity values. To calculate cytoxicity values, the average Alamar Blue fluorescence signals from the control wells were set as 100% non-toxic. The individual signals in each of the compound test wells were then divided by the average control signal and multiplied by 100% to determine […]. To calculate the HCV replicon inhibition values, an average background value was obtained from the two wells containing the highest amount of HCV protease inhibitor at the end of the assay period. These numbers were similar to those obtained from naïve Huh-7 cells.
The background numbers were then subtracted from the average signal obtained from the control wells and this number was used as 100% activity. The individual signals in each of the compound test wells were then divided by the averaged control values after background subtraction and multiplied by 100% to determine percent activity. EC50 values for a protease inhibitor titration were calculated as the concentration which caused a 50% reduction in FRET or luciferase activity. The two numbers generated for the compound plate, percent cytoxicity and percent activity were used to determine compounds of interest for further analysis.

HCV NS5B = target: T1, HCV NS5B (Hepatitis C virus genotype 1b, UniProt Q9WMX2); test: HCV NS5B RdRp enzyme assay (standard / modified); format: biochemical
T1 construct: The protein was expressed with an 18 amino acid C-terminal truncation to enhance the solubility; made in house; host or cells: E. coli BL21 (DE3)
Procedure: HCV NS5B RdRp cloning, expression, and purification. The cDNA encoding the NS5B protein of HCV, genotype 1b, was cloned into the pET21a expression vector. The protein was expressed with an 18 amino acid C-terminal truncation to enhance the solubility. The E. coli competent cell line BL21 (DE3) was used for expression of the protein. Cultures were grown at 37° C. for ˜4 hours until the cultures reached an optical density of 2.0 at 600 nm. The cultures were cooled to 20° C. and induced with 1 mM IPTG. Fresh ampicillin was added to a final concentration of 50 μg/ml and the cells were grown overnight at 20° C.
Cell pellets (3 L) were lysed for purification to yield 15-24 mgs of purified NS5B. The lysis buffer consisted of 20 mM Tris-HCl, pH 7.4, 500 mM NaCl, 0.5% triton X-100, 1 mM DTT, 1 mM EDTA, 20% glycerol, 0.5 mg/ml lysozyme, 10 mM MgCl2, 15 ug/ml deoxyribonuclease I, and Complete TM protease inhibitor tablets (Roche). After addition of the lysis buffer, frozen cell pellets were resuspended using a tissue homogenizer. To reduce the viscosity of the sample, aliquots of the lysate were sonicated on ice using a microtip attached to a Branson sonicator. The sonicated lysate was centrifuged at 100,000×g for 1 hr at 4° C. and filtered through a 0.2 μm filter unit (Corning).
The protein was purified using three sequential chromatography steps: Heparin sepharose CL-6B, polyU sepharose 4B, and Hitrap SP sepharose (Pharmacia). The chromatography buffers were identical to the lysis buffer but contained no lysozyme, deoxyribonuclease I, MgCl2 or protease inhibitor and the NaCl concentration of the buffer was adjusted according to the requirements for charging the protein onto the column. Each column was eluted with a NaCl gradient which varied in length from 5-50 column volumes depending on the column type. After the final chromatography step, the resulting purity of the enzyme is >90% based on SDS-PAGE analysis. The enzyme was aliquoted and stored at −80° C.
Standard HCV NS5B RdRp enzyme assay. HCV RdRp genotype 1b assays were run in a final volume of 60 μl in 96 well plates (Costar 3912). The assay buffer is composed of 20 mM Hepes, pH 7.5, 2.5 mM KCl, 2.5 mM MgCl2, 1 mM DTT, 1.6 U RNAse inhibitor (Promega N2515), 0.1 mg/ml BSA (Promega R3961), and 2% glycerol. All compounds were serially diluted (3-fold) in DMSO and diluted further in water such that the final concentration of DMSO in the assay was 2%. HCV RdRp genotype 1b enzyme was used at a final concentration of 28 nM. A polyA template was used at 6 nM, and a biotinylated oligo-dT12 primer was used at 180 nM final concentration. Template was obtained commercially (Amersham 27-4110). Biotinylated primer was prepared by Sigma Genosys. 3H-UTP was used at 0.6 μCi (0.29 μM total UTP). Reactions were initiated by the addition of enzyme, incubated at 30° C. for 60 min, and stopped by adding 25 μl of 50 mM EDTA containing SPA beads (4 μg/μl, Amersham RPNQ 0007). Plates were read on a Packard Top Count NXT after >1 hr incubation at room temperature.
Modified HCV NS5B RdRp enzyme assay. A modified enzyme assay was performed essentially as described for the standard enzyme assay except for the following: The biotinylated oligo dT12 primer was precaptured on streptavidin-coated SPA beads by mixing primer and beads in assay buffer and incubating at room temperature for one hour. Unbound primer was removed after centrifugation. The primer-bound beads were resuspended in 20 mM Hepes buffer, pH 7.5 and used in the assay at final concentrations of 20 nM primer and 0.67 μg/μl beads. Order of addition in the assay: enzyme (14 nM) was added to diluted compound followed by the addition of a mixture of template (0.2 nM), 3H-UTP (0.6 μCi, 0.29 μM), and primer-bound beads, to initiate the reaction; concentrations given are final. Reactions were allowed to proceed for 4 hours at 30° C.
IC50 values for compounds were determined using seven different [I]. […]

[1] = HCV replicon cells, FRET or luciferase readout, read-out: EC50
[2] = HCV RdRp genotype 1b enzyme, read-out: IC50

T1 sequence (Q9WMX2 2420-2992): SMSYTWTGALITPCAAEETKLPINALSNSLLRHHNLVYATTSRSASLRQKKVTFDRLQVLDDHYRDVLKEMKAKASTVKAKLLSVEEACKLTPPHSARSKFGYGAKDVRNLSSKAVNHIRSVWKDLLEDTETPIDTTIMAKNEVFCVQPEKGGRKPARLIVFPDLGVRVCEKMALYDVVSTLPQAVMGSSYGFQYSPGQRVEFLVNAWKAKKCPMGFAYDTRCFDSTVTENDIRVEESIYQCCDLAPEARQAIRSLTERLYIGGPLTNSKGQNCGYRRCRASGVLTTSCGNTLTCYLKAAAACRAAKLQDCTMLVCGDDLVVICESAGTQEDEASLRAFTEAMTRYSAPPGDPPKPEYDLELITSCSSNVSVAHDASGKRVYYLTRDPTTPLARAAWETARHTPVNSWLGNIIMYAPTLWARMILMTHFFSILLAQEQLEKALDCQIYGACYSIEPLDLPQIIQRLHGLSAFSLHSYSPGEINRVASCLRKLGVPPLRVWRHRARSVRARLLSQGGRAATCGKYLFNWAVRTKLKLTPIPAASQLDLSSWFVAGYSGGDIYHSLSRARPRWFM

Row | Structure (SMILES) | EC50 (HCV replicon cells) [nM] | IC50 (HCV NS5B) [nM] | EC50 (HCV replicon cells; [1]) [nM] | IC50 (HCV NS5B; [2]) [nM]
1 | COc1ccc2c(c1)C=C(c1sccc1C(=O)N1C3CCC1CN(C)C3)Cn1c-2c(C2CCCCC2)c2ccc(C(=O)NS(=O)(=O)C(C)C)cc21 | 1 to 500 | 1 to 500 |  | 
2 | COc1ccc2c(c1)C=C(c1c(C(=O)N3C4CCC3CC4)cnn1C)Cn1c-2c(C2CCCCC2)c2ccc(C(=O)NS(=O)(=O)N3CCOCC3)cc21 | 1 to 500 | 1 to 500 |  | 
3 | CCN1C[C@@H]2C[C@H]1CN2C(=O)c1c(C(F)(F)F)nn(C)c1C1=Cc2cc(OC)ccc2-c2c(C3CCCCC3)c3ccc(C(=O)NS(=O)(=O)C(C)C)cc3n2C1 |  |  | 1 to 500 | 1 to 500
4 | COC[C@@H]1CN(C(=O)c2c(C(F)(F)F)nn(C)c2C2=Cc3cc(OC)ccc3-c3c(C4CCCCC4)c4ccc(C(=O)NS(=O)(=O)C(C)C)cc4n3C2)CCO1 |  |  | 1 to 500 | 1 to 500
5 | COc1ccc2c(c1)C=C(c1c(C(=O)O)cnn1C)Cn1c-2c(C2CCCCC2)c2ccc(C(=O)O)cc21 |  |  | > 40 | 1 to 500
6 | COc1ccc2c(c1)C=C(c1c(C(=O)N3CCOCC3)c(C)nn1C(C)C)Cn1c-2c(C2CCCCC2)c2ccc(C(=O)NS(=O)(=O)C(C)C)cc21 |  |  | 1 to 500 | 1 to 500
7 | COc1ccc2c(c1)C=C(c1c(C(=O)N3CCCC4(CCNC4=O)C3)cnn1C)Cn1c-2c(C2CCCCC2)c2ccc(C(=O)NS(=O)(=O)N3CCOCC3)cc21 (stereo not shown) |  |  | 1 to 500 | 1 to 500
8 | COC[C@@H]1CN(C(=O)c2cnn(C)c2C2=Cc3cc(OC)ccc3-c3c(C4CCCCC4)c4ccc(C(=O)NS(=O)(=O)N5CCOCC5)cc4n3C2)CCO1 |  |  | 1 to 500 | 1 to 500
9 | COc1ccc2c(c1)C=C(c1ocnc1C(=O)N1CCOCC1)Cn1c-2c(C2CCCCC2)c2ccc(C(=O)OC(C)(C)C)cc21 |  |  | > 40 | > 40
10 | COc1ccc2c(c1)C=C(c1ocnc1C(=O)N1CCOCC1)Cn1c-2c(C2CCCCC2)c2ccc(C(=O)NS(=O)(=O)C(C)C)cc21 |  |  | 1 to 500 | 1 to 500
11 | COc1ccc2c(c1)C=C(c1c(C(=O)N3CCN(C)CC3)c(C)nn1C(C)C)Cn1c-2c(C2CCCCC2)c2ccc(C(=O)NS(=O)(=O)C(C)C)cc21 |  |  | 1 to 500 | 1 to 500
12 | COc1ccc2c(c1)C=C(c1c(C(=O)N3C[C@@H](C)N(C)[C@@H](C)C3)c(C)nn1C)Cn1c-2c(C2CCCCC2)c2ccc(C(=O)NS(=O)(=O)C(C)C)cc21 |  |  | 1 to 500 | 1 to 500
13 | COc1ccc2c(c1)C=C(c1c(C(=O)N3CCOCC3)c(C)nn1C)Cn1c-2c(C2CCCCC2)c2ccc(C(=O)NS(=O)(=O)N(C)C)cc21 |  |  | 1 to 500 | 1 to 500
14 | COc1ccc2c(c1)C=C(c1c(C(=O)N3C[C@@H](C)O[C@@H](C)C3)cnn1C(C)C)Cn1c-2c(C2CCCCC2)c2ccc(C(=O)NS(=O)(=O)CC(C)C)cc21 |  |  | 1 to 500 | 1 to 500
